# Source: patent publication US10030016B2 (Sunesis Pharmaceuticals, Inc., priority 2009, dated 2018)
# Counter-ions that a name gives are not always drawn. Like-named read-outs stand apart in the source and are kept apart here.
# Tests used:
# [1] = test system: phospho-akt (Thr308) in PC-3 cells; assay: Inhibition of phospho-akt (Thr308) in PC-3 cells, MSD phospho-akt 308 ELISA kit; format: cell-based; settings: 2 hours, no serum, read-out: EC50
# Summary of the method: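 Read-out is MSD electrochemiluminescence of Akt phosphorylated at Thr308 in lysates of PC-3 cells treated 2 h with compound in serum-free medium. Wortmannin at 5 μM defined the low control and DMSO the high control.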
# [2] = biological target: PDK1 (Homo sapiens (Human), UniProt O15530); assay: PDK1 kinase assay (coupled PDK1/AKT/FAM-crosstide assay, IMAP fluorescence polarization); format: biochemical
# Chain of PDK1 (O15530 51-359): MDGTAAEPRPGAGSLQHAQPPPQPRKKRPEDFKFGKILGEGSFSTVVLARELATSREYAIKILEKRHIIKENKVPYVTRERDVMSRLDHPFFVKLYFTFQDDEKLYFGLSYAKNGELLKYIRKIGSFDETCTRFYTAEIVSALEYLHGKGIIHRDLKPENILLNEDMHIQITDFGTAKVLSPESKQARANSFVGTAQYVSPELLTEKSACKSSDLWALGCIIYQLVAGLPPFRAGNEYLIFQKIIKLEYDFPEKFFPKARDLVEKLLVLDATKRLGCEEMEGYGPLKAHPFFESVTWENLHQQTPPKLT
# Summary of the method: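 Inhibition is derived by 4-parameter fitting of ΔmP from an IMAP fluorescence polarization read of FAM-crosstide (100 nM) phosphorylation. The cascade ran 30 min at 25 °C with 40 μM ATP, using insect-cell GST-PDK1 51-359 (0.75 nM) driving 10 nM unphosphorylated AKT2 140-467-PIFtide fusion.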
# [3] = Homo sapiens, inhibition of P308 Akt in PC-3 cells using MSD
# [4] = inhibition of phospo-PDK1 in vitro
# [5] = Homo sapiens, PC-3, 2 h, inhibition of P308 Akt in PC-3 cells, MSD
# [6] = Homo sapiens, inhibition of P308 Akt in PC-3 cells, MSD
SMILES,"EC50 [1, 3]",IC50 ([2]; inhibition of PDK1 in vitro),"IC50 [2, 4]",further results
"CNc1n[nH]c2ncc(-c3ccc(CNc4ncc(C#N)nc4C(=O)N[C@@H](C)c4ccc(F)c(F)c4)cc3)cc12 [Example 52, (S)-6-cyano-N-(1-(3,4-difluorophenyl)ethyl)-3-(4-(3-(methylamino)-1H-pyrazolo[3,4-b]pyridin-5-yl)benzylamino)pyrazine-2-carboxamide]",< 1 µM,< 0.1 µM,–,–
"C[C@H](NC(=O)c1cc(C#N)cnc1NCc1ccc(-c2cnc3[nH]ncc3c2)cc1)c1ccc(F)cc1 [Example 2.36, 5-Cyano-N-[(S)-1-(4-fluoro-phenyl)-ethyl]-2-[4-(1H-pyrazolo[3,4-]pyridin-5-yl)-benzylamino]-nicotinamide]",–,–,< 0.1 µM,"EC50 ([1]; inhibition of P308 Akt in PC-3 cells, MSD): < 1 µM"
"C[C@H](NC(=O)c1cccnc1NCc1ccc(-c2c[nH]c(=O)c3ccccc23)s1)c1ccc(F)cc1 [Example 2.9, (S)-N-(1-(4-fluorophenyl)ethyl)-2-(((5-(1-oxo-1,2-dihydroiso-quinolin-4-yl)thiophen-2-yl)methyl)amino)nicotinamide]",–,–,1 to 5 µM,"EC50 [1, 5]: 1 to 10 µM"
"C[C@H](NC(=O)c1nc(C#N)cnc1NCc1ccc(-c2cnc(N)c(N3CCC[C@@H](N)C3)n2)cc1)c1ccc(F)c(F)c1 [Example 190, 3-{4-[5-Amino-6-((R)-3-amino-piperidin-1-yl)-pyrazin-2-yl]-benzylamino}-6-cyano-pyrazine-2-carboxylic acid [(S)-1-(3,4-difluoro-phenyl)-ethyl]-amide]",1 to 10 µM,< 0.1 µM,–,–
"CNc1ncnc2ccc(-c3ccc(CNc4ncccc4C(=O)NCc4ccc(F)c(F)c4)s3)cc12 [Example 4.24, N-(3,4-difluorobenzyl)-2-(((5-(4-(methylamino)quinazolin-6-yl)thiophen-2-yl)methyl)amino)nicotinamide]",–,–,< 0.1 µM,"EC50 [1, 6]: 1 to 10 µM"
"CC(C)(N)CCc1nc(-c2ccc(CNc3ncc(C(F)(F)F)cc3C(=O)Nc3ccc(F)cc3)cc2)cnc1N [Example 83, 2-{4-[5-Amino-6-(3-amino-3-methyl-butyl)-pyrazin-2-yl]-benzylamino}-N-(4-fluoro-phenyl)-5-trifluoro-methyl-nicotinamide]",< 1 µM,< 0.1 µM,–,–
CNC(=O)c1cc(S(=O)(=O)NCCN)cnc1NCc1ccc(-c2ccc3ncnc(N)c3c2)s1 [Example 344],> 10 µM,> 5 µM,–,–
"COC(=O)c1ccc(-c2ccc(CNc3ncc(C#N)cc3C(=O)N[C@@H](C)c3ccc(F)cc3)cc2)cn1 [Example 112, (S)-methyl 5-(4-((5-cyano-3-(1-(4-fluorophenyl)ethyl-carbamoyl)pyridin-2-ylamino)methyl)phenyl)picolinate]",> 10 µM,> 5 µM,–,–
"Cn1ccc(NC(=O)c2cc(C(F)(F)F)cnc2NCc2ccc(-c3cnc4[nH]nc(N)c4c3)cc2)n1 [Example 307, 2-(4-(3-amino-1H-pyrazolo [3,4-b]pyridin-5-yl)benzylamino)-N-(1-methyl-1H-pyrazol-3-yl)-5-(trifluoromethyl)nicotinamide]",1 to 10 µM,1 to 5 µM,–,–
"C[C@H](NC(=O)c1nc(C#N)cnc1NCc1ccc(-c2ccc3ncnc(N)c3c2)s1)c1ccc(F)c(F)c1 [Ex. 10.9, 3-({[5-(4-aminoquinazolin-6-yl)thiophen-2-yl]methyl}amino)-6-cyano-N-[(1S)-1-(3,4-difluorophenyl)ethyl] pyrazine-2-carboxamide]",–,–,0.1 to 1 µM,"EC50 [1, 6]: < 1 µM"
"C[C@H](NC(=O)c1cc(C#N)cnc1NCC#Cc1cnc2[nH]ncc2c1)c1ccc(F)cc1 [Example 249, (S)-2-(3-(1H-pyrazolo[3,4-b]pyridin-5-yl)prop-2-ynylamino)-5-cyano-N-(1-(4-fluorophenyl)ethyl)nicotinamide]",> 10 µM,> 5 µM,–,–
"Nc1ncnc2ccc(-c3ccc(CNc4ncccc4C(=O)Nc4cccc(F)c4)s3)cc12 [Example 3.46, 2-({[5-(4-aminoquinazolin-6-yl)thiophen-2-yl]methyl}amino)-N-(3-fluorophenyl)pyridine-3-carboxamide (TFA salt)]",–,–,0.1 to 1 µM,"EC50 [1, 6]: 1 to 10 µM"
"C[C@H](NC(=O)c1cc(C#N)cnc1NCc1ccc(-c2cnc3[nH]cnc3c2)cc1)c1ccc(F)cc1 [Example 135, (S)-2-(4-(3H-imidazo [4,5-b]pyridin-6-yl)benzylamino)-5-cyano-N-(1-(4-fluorophenyl)ethyl)nicotinamide]",< 1 µM,< 0.1 µM,–,–
"Cc1n[nH]cc1/C=C1\C(=O)Nc2cc(/C=C/CNc3ncccc3C(=O)NCc3ccc(F)c(F)c3)ccc21 [Example 15.10, N-(3,4-Difluoro-benzyl)-2-((E)-3-{3-[1-(3-methyl-1H-pyrazol-4-yl)-meth-(Z)-ylidene]-2-oxo-2,3-dihydro-1H-indol-6-yl}-allylamino)-nicotinamide]",–,–,< 0.1 µM,"EC50 [1, 6]: < 1 µM"
"Nc1ccc(-c2ccc(CNc3ncc(C(F)(F)F)cc3C(=O)NCc3ccc(F)c(F)c3)cc2)cn1 [Example 370, 2-(4-(6-aminopyridin-3-yl)benzylamino)-N-(3,4-difluorobenzyl)-5-(trifluoro-methyl)nicotinamide]",1 to 10 µM,< 0.1 µM,–,–
"C[C@H](NC(=O)c1cn(C)nc1NCc1ccc(-c2ccc3ncnc(N)c3c2)s1)c1ccc(F)cc1 [Example 11.5, 3-({[5-(4-aminoquinazolin-6-yl)thiophen-2-yl]methyl}amino)-N-[(1S)-1-(4-fluorophenyl)ethyl]-1-methyl-1H-pyrazole-4-carboxamide]",–,–,< 0.1 µM,"EC50 [1, 6]: 1 to 10 µM"
"Nc1cccc(-c2nc(-c3ccc(CNc4ncc(C(F)(F)F)cc4C(=O)Nc4ccc(F)cc4)cc3)cnc2N)c1 [Example 239, 2-{4-[5-Amino-6-(3-amino-phenyl)-pyrazin-2-yl]-benzylamino}-N-(4-fluoro-phenyl)-5-trifluoromethyl-nicotinamide]",1 to 10 µM,< 0.1 µM,–,–
"Nc1n[nH]c2ncc(-c3ccc(CNc4ncc(C(F)(F)F)cc4C(=O)Nc4ccncn4)cc3)cc12 [Example 303, 2-(4-(3-amino-1H-pyrazolo [3,4-b]pyridin-5-yl)benzylamino)-N-(pyrimidin-4-yl)-5-(trifluoromethyl)nicotinamide]",1 to 10 µM,< 0.1 µM,–,–
"Nc1ncnn2ccc(-c3ccc(CNc4ncc(C(F)(F)F)cc4C(=O)Nc4ccc(F)cc4)cc3)c12 [Example 177, 2-[4-(4-Amino-pyrrolo [2,1-f][1,2,4]triazin-5-yl)-benzylamino]-N-(4-fluoro-phenyl)-5-trifluoromethyl-nicotinamide]",1 to 10 µM,< 0.1 µM,–,–
"CC(C)Oc1cc(CNc2ncccc2C(=O)N(C)C2CCCCC2)cc(-c2c[nH]c3ncc(C(=O)NC4CC4)cc23)c1 [Example 4.1.6, 3-{3-[({3-[cyclohexyl(methyl)carbamoyl]pyridin-2-yl}amino)methyl]-5-(propan-2-yloxy)phenyl}-N-cyclopropyl-1H-pyrrolo[2,3-b]pyridine-5-carboxamide]",–,–,> 5 µM,"EC50 [1, 6]: > 10 µM"
"Cc1n[nH]c2ncc(-c3ccc(CNc4ncc(C#N)nc4C(=O)N[C@@H](C)c4ccc(F)c(F)c4)cc3)cc12 [Example 410, (S)-6-cyano-N-(1-(3,4-difluorophenyl)ethyl)-3-(4-(3-methyl-1H-pyrazolo [3,4-b]pyridin-5-yl)benzylamino)pyrazine-2-carboxamide]",< 1 µM,< 0.1 µM,–,–
"Nc1ncnc2ccc(-c3ccc(CNc4ncccc4C(=O)NCc4ccc(C(F)(F)F)o4)s3)cc12 [Example 3.28, 2-({[5-(4-aminoquinazolin-6-yl)thiophen-2-yl]methyl}amino)-N-{[5-(trifluoromethyl)furan-2-yl]methyl}pyridine-3-carboxamide (bis TFA salt)]",–,–,1 to 5 µM,"EC50 [1, 5]: > 10 µM"
"Cc1cc(N)ncc1-c1ccc(CNc2ncc(C#N)cc2C(=O)N[C@@H](C)c2ccc(F)cc2)cc1 [Example 121, (S)-2-(4-(6-amino-4-methylpyridin-3-yl)benzylamino)-5-cyano-N-(1-(4-fluorophenyl)ethyl) nicotinamide]",> 10 µM,0.1 to 1 µM,–,–
"Nc1ncnc2ccc(-c3ncc(CNc4ncccc4C(=O)NCc4ccc(F)c(F)c4)s3)cc12 [Ex. 6.6, 2-({[2-(4-aminoquinazolin-6-yl)-1,3-thiazol-5-yl]methyl}amino)-N-(3,4-difluoro-benzyl) pyridine-3-carboxamide]",–,–,< 0.1 µM,"EC50 [1, 6]: > 10 µM"
"Nc1ncc(-c2ccc(CNc3ncc(C(F)(F)F)cc3C(=O)Nc3ccc(F)cc3)cc2)nc1O[C@H]1CCNC1 [Example 163, 2-{4-[5-Amino-6-((S)-pyrrolidin-3-yloxy)-pyrazin-2-yl]-benzylamino}-N-(4-fluoro-phenyl)-5-trifluoromethyl-nicotinamide]",< 1 µM,< 0.1 µM,–,–
"C[C@H](NC(=O)c1nc(C#N)cnc1NCc1ccc(-c2cnc(N)c(O[C@@H]3CCNC3)n2)cc1)c1ccc(F)c(F)c1 [Example 161, 3-{4-[5-Amino-6-((R)-pyrrolidin-3-yloxy)-pyrazin-2-yl]-benzylamino}-6-cyano-pyrazine-2-carboxylic acid [(S)-1-(3,4-difluoro-phenyl)-ethyl]-amide]",< 1 µM,< 0.1 µM,–,–
"O=C(NCc1ccc(F)c(F)c1)c1cccnc1NCc1cc(-c2c[nH]c3ncc(-c4ccn[nH]4)cc23)ccn1 [Example 54, 2-((4-(5-(1H-pyrazol-5-yl)-1H-pyrrolo[2,3-b]pyridin-3-yl)pyridin-2-yl)methylamino)-N-(3,4-difluorobenzyl)nicotinamide]",< 1 µM,< 0.1 µM,–,–
